As a reminder, the pIC50 is the IC50 on a negative log10 scale, so that one unit is a factor of ten.

Drawing on ChEMBL document CHEMBL5316313, “Discovery of Novel 3-Phenylpiperidine Derivatives Targeting the β-Catenin/B-Cell Lymphoma 9 Interaction as a Single Agent and in Combination with the Anti-PD-1 Antibody for the Treatment of Colorectal Cancer” (J Med Chem, 2023), this text covers IC50 for 28 compounds.

pIC50: −log10 of the molar value. Where only a bound is given, the exact number is not on record here.

The target in assay [1] is T1, beta-catenin-B-cell lymphoma 9 protein complex (Homo sapiens, UniProt P35222).
T1 sequence (P35222 whole entry): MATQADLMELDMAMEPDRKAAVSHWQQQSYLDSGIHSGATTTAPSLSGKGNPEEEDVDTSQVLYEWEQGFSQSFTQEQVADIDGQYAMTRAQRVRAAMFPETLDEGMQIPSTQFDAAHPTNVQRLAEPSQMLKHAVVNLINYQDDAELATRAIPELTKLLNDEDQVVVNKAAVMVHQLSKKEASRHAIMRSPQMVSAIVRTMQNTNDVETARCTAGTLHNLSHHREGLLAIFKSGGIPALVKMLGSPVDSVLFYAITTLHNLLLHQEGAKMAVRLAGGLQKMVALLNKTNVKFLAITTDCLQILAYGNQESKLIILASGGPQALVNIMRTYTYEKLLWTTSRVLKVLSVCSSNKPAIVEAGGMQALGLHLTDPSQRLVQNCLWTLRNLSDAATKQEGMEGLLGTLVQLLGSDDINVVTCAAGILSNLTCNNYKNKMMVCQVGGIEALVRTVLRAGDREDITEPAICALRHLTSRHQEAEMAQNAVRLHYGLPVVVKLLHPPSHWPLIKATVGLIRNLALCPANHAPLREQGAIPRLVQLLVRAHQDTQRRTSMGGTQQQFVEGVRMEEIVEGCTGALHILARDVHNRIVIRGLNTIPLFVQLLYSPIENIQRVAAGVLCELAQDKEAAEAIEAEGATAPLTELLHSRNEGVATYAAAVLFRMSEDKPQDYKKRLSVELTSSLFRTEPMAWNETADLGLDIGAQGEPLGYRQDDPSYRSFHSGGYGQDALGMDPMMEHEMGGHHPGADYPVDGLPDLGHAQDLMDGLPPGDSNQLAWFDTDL
T1 sequence (O00512 whole entry): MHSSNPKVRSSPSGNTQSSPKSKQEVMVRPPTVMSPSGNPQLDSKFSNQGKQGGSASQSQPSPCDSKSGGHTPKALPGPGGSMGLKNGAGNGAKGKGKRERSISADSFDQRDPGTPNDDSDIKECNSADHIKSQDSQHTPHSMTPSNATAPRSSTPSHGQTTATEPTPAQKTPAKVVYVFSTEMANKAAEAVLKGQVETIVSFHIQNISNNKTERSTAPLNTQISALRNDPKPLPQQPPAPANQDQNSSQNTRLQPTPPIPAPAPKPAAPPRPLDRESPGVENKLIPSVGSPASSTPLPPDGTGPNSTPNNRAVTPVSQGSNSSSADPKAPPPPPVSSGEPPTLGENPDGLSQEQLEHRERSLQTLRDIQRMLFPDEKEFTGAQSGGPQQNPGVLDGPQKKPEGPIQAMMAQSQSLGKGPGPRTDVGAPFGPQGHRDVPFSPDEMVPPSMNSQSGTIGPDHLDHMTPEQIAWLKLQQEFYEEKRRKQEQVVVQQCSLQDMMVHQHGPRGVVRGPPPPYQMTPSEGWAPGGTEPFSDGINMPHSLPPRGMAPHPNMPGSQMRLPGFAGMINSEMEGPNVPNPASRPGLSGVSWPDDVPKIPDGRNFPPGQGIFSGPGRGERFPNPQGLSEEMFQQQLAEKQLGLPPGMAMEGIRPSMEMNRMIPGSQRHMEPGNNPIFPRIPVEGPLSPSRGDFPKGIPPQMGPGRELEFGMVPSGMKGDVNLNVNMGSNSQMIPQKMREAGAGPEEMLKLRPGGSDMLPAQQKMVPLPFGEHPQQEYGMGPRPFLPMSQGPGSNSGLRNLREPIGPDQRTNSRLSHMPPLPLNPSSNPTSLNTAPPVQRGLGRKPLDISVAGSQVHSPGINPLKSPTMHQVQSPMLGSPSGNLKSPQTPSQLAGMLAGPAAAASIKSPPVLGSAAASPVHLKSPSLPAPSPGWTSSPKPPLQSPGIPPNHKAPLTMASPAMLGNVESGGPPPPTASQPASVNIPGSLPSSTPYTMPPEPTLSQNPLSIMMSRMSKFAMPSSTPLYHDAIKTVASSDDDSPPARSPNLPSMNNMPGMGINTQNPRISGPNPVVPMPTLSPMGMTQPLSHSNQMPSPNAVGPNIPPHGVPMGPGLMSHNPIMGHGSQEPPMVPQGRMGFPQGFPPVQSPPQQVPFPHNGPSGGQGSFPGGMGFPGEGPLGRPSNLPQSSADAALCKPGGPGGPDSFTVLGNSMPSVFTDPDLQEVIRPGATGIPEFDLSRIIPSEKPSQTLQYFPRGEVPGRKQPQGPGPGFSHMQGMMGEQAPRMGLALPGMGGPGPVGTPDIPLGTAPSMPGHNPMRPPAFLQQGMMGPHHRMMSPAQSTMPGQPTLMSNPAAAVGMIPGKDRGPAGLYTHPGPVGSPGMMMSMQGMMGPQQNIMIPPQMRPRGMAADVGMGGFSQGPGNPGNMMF
The assay can be described thus: Inhibition of N-terminal His6-tagged full-length recombinant beta-catenin (1 to 781 residues) (unknown origin) expressed in Escherichia coli BL21 DE3/N-terminal FAM tagged BCL9 HD2(350 to 375 residues) (unknown origin) protein-protein interaction assessed as inhibition constant incubated for 3 hrs by competitive fluorescence polarization assay.

Assay [2] deals with T1, beta-catenin-B-cell lymphoma 9 protein complex. The experiment in a line: Inhibition of beta-catenin/BCL9 protein-protein interaction in Wnt-dependent human HCT-116 cells assessed as reduction in Axin2 expression level by qRT-PCR assay. The assay is classed as cell-based. Background: Quantitative PCR measures a nucleic acid by following its amplification.

In the case of `CC(C)c1ccc(-c2cccc(S(=O)(=O)N3CCCC(c4cccc(OC(C)(C)C(=O)NS(=O)(=O)c5ccc(C(F)(F)F)cc5Cl)c4)C3)c2)cc1` (centres undefined), the negative-log IC50 (pIC50) in assay [1] is 5.93; in assay [2], 5.87.
Take `COc1ccc(S(=O)(=O)NC(=O)C(C)(C)Oc2cccc(C3CCCN(S(=O)(=O)c4cccc(-c5ccc(C(C)C)cc5)c4)C3)c2)cc1` (centres undefined): the negative logarithm of the IC50 (pIC50) in assay [1] was 5.35.
Still for that read-out and setting: then `Cc1ccc(COC(=O)N2CCCC(c3cccc(OC(C)(C)C(=O)O)c3)C2)cc1C` (centres undefined), with 5.38; and `CC(C)(Oc1cccc(C2CCCN(C(=O)OCc3ccc4ccccc4c3)C2)c1)C(=O)O` (centres undefined), with below 5.00.
In the case of `CC(C)(Oc1cccc(C2CCCN(S(=O)(=O)c3cccc(-c4ccsc4)c3)C2)c1)C(=O)O` (centres undefined), the negative-log IC50 (pIC50) in assay [1] was 5.40.
In the case of `CC(C)c1ccc(/C=C/C(=O)N2CCCC(c3cccc(OC(C)(C)C(=O)O)c3)C2)cc1` (centres undefined), in assay [1], the negative-log IC50 (pIC50) was 5.27.
With `CC(=O)Nc1ccc(S(=O)(=O)NC(=O)C(C)(C)Oc2cccc(C3CCCN(S(=O)(=O)c4cccc(-c5ccc(C(C)C)cc5)c4)C3)c2)cc1` (centres undefined), the pIC50 in assay [1] is 6.05; in assay [2] it was 5.53.
The corresponding values for `CC(C)c1ccc(-c2cccc(S(=O)(=O)N3CCCC(c4cccc(OC(C)(C)C(=O)NS(=O)(=O)c5cccc(C(F)(F)F)c5)c4)C3)c2)cc1` (centres undefined) are 5.61 and 5.88.
For `CC(C)c1ccc(-c2cccc(S(=O)(=O)N3CCCC(c4cccc(OC(C)(C)C(=O)NS(=O)(=O)c5ccc(OC(F)(F)F)cc5)c4)C3)c2)cc1` (centres undefined), the pIC50 in assay [1] was 6.00; in assay [2] it was 5.92.
Consider `COC(=O)C(C)(C)Oc1cccc(C2CCCN(C(=O)OCc3ccc(C(C)C)cc3)C2)c1` (centres undefined), for which the pIC50 in assay [1] was 5.28.
Turning to `CC(C)c1ccc(-c2cccc(S(=O)(=O)N3CCCC(c4cccc(OC(C)(C)C(=O)NCc5ccccc5)c4)C3)c2)cc1` (centres undefined), the negative logarithm of the IC50 (pIC50) was 5.42 in assay [1] and 5.00 in assay [2].
The like results for `CC(C)c1ccc(-c2cccc(S(=O)(=O)N3CCCC(c4cccc(OC(C)(C)C(=O)NS(=O)(=O)c5ccc(C#N)cc5)c4)C3)c2)cc1` (centres undefined) were, in that order, 5.73 and 5.83.
With `CC(C)c1cccc(-c2cccc(S(=O)(=O)N3CCCC(c4cccc(OC(C)(C)C(=O)O)c4)C3)c2)c1` (centres undefined), the pIC50 in assay [1] was 5.37.
For `CC(C)(Oc1cccc(C2CCCN(C(=O)OCc3ccc4ncccc4c3)C2)c1)C(=O)O` (centres undefined), the negative logarithm of the IC50 (pIC50) in assay [1] is below 5.00.
Regarding `CC(C)(Oc1cccc(C2CCCN(C(=O)OCc3ccc(C(C)(C)C)cc3)C2)c1)C(=O)O` (centres undefined), in assay [1], the negative logarithm of the IC50 (pIC50) was below 5.00.
Still for that read-out and setting: then `CC(C)(Oc1cccc(C2CCCN(S(=O)(=O)c3cccc(-c4ccc(F)c(F)c4)c3)C2)c1)C(=O)O` (centres undefined), with below 5.00; and `CC(C)c1ccc(CNC(=O)N2CCCC(c3cccc(OC(C)(C)C(=O)O)c3)C2)cc1` (centres undefined), with 5.06.
On to `COc1ccc(COC(=O)N2CCCC(c3cccc(OC(C)(C)C(=O)O)c3)C2)cc1OC` (centres undefined), for which, in assay [1], the pIC50 is 5.17.
Same read-out and setting: the value for `CC(C)c1ccc(-c2cccc(C(=O)N3CCCC(c4cccc(OC(C)(C)C(=O)O)c4)C3)c2)cc1` (centres undefined) was below 5.00; that for `CC(C)(Oc1cccc(C2CCCN(S(=O)(=O)c3cccc(-c4cccs4)c3)C2)c1)C(=O)O` (centres undefined) was below 5.00.
Still for that read-out and setting: then `Cc1ccc(-c2cccc(S(=O)(=O)N3CCCC(c4cccc(OC(C)(C)C(=O)O)c4)C3)c2)cc1C` (centres undefined), with 5.33; and `CC(C)c1ccc(COC(=O)N2CCC(c3cccc(OC(C)(C)C(=O)O)c3)CC2)cc1`, with 5.31; and `Cc1ccc(COC(=O)N2CCCC(c3cccc(OC(C)(C)C(=O)O)c3)C2)cc1` (centres undefined), with 5.17.
On the same count and under the same terms, then `CC(C)(Oc1cccc(C2CCCN(S(=O)(=O)c3cccc(C4CCCCC4)c3)C2)c1)C(=O)O` (centres undefined), with below 5.00.
Consider `CC(C)(Oc1cccc(C2CCCN(C(=O)OCc3ccc(F)c(F)c3)C2)c1)C(=O)O` (centres undefined), for which the pIC50 in assay [1] was 5.36.
On the same count and under the same terms, then `CC(C)(Oc1cccc(C2CCCN(C(=O)OCc3ccc(F)cc3F)C2)c1)C(=O)O` (centres undefined), with 5.28; and `COc1ccc(COC(=O)N2CCCC(c3cccc(OC(C)(C)C(=O)O)c3)C2)cc1` (centres undefined), with 5.28; and `CC(C)(Oc1cccc(C2CCCN(S(=O)(=O)c3cccc(-c4ccccc4)c3)C2)c1)C(=O)O` (centres undefined), with 5.08.
